Key:
[1] = molecular target: T1, A2b receptor (Mus musculus, UniProt Q60614); test: Ussing chamber Isc (chloride secretion) in murine colonic mucosal stripping; details: mouse colonic mucosa
T1 construct: Murine colonic mucosal stripping from the distal colon was mounted on Ussing chamber; from tissue; host or cells: mouse distal colon mucosa, stripped of external muscle
T1 sequence (Q60614 1-332): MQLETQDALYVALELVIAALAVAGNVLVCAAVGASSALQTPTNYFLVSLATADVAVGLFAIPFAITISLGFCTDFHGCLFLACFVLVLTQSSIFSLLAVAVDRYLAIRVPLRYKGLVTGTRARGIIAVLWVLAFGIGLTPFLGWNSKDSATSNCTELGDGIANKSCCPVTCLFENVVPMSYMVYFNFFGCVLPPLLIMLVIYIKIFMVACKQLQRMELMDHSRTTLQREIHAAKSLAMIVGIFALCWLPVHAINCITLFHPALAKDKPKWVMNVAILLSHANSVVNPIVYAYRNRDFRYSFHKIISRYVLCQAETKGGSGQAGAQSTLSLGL
Description: Electrophysiologic studies were performed as described previously Mice were euthanized by CO2/hypothermia. The colon was removed and opened along the mesenteric border. The colon was then stripped of its external muscle by blunt dissection. A of mucosa from distal colon was used for Using chamber studies. After a sustained baseline Isc, mucosal layers were stimulated with adenosine (100 μM) and forskolin (FSK 10 μM). Antagonist was added to both bathing solutions before stimulating with adenosine.

[2] = tested on: colonic crypt epithelial cells; test: ki67 proliferation and TUNEL apoptosis staining, IL-10-/- model; format: in vivo, mouse; details: IL-10-/- mice, piroxicam+ATL-801
Description: Apoptosis: Apoptotic cells were determined in colonic crypts of the mice that received ATL-801. Apoptotic cells were identified by fluorescent double staining using caspase-3 and terminal deoxyuridine nick-end labeling (TUNEL) as a secondary method to detect apoptosis. After deparaffinization and hydration, paraffin sections of colon were retrieved for antigens in a pressure cooker with sodium citrate (pH 6.0, 10 mM) for 10 min. After cooling, the sections were quenched in 3% H2O2 in methanol and then blocked with normal goat serum. Caspase-3 was detected with rabbit anti-cleaved-caspase-3 IgG overnight at 4° C. followed by a labeled streptavidin-biotin (LSAB) staining method consisting of successive application of secondary antibody-streptavidin, biotin-horseradish peroxidase, and cyanine-3 tyramide. TUNEL immunohistochemistry was performed using the in situ cell death detection kit, fluorescein, as described by the manufacturer (Roche Applied Science, Indianapolis, Ind.). For IL-10 model, frozen sections were used to stain cleaved caspase 3 and TUNEL. Nuclei were attained by Hoechst to count total crypt cell number. The apoptotic index for both morphologically defined apoptotic cells and fluorescent staining with caspase-3 was calculated as the number of apoptotic cells per crypt. […]

[3] = tested on: IL-6 and MIP-2 mRNA; test: Real time PCR of proinflammatory cytokine mRNA in colonic tissue, DSS model; format: in vivo, mouse
Description: In the DSS-model proinflammatory cytokines were measured by real time PCR. Total RNA was extracted from DSS treated, DSS+ATL-801 and control colonic tissue using the TRizol reagent. After quantification, a reverse transcription (RT) reaction was performed with 2 μg of each sample and oligo-dT primer, using the SuperScript First strand synthesis system for RT-PCR (Invitrogen, CA). The real-time iCycler sequence detection system (Bio-Rad) was used for the real-time RT-PCR. […] The 36B4 expression levels were used as reference, and fold-induction was calculated using a standard curve. For graphical representation of quantitative PCR data, raw cycle threshold values (Ct values) obtained for treated mice were deducted from the Ct value obtained for internal 36B4 transcript levels, using the Ct method as follows: ΔΔCT=(Ct Target−Ct 36B4)treatment−(Ct Target−Ct 36B4) no treatment, and the final data were derived from 2^−ΔΔCT. […] In IL-10−/− model proinflammatory cytokines were measured by ELISA in organ cultures. […] Supernatants were harvested after 24 hours, centrifuged and stored at −80° C. before IL-6 and keratinocyte derived chemokine, KC levels were measured by ELISA. […] IL-8 was measured in the supernatants by ELISA.

CCCn1c(=O)n(C2CC2)c(=O)c2[nH]c(-c3ccc(N(CC)C(=O)c4cccnc4)nc3)nc21 [ATL-801]
ΔIsc, ATL-801+Adenosine ([1]; ATL-801 100 μM before adenosine 100 μM, adenosine alone 7.9 μA): 1.9 μA | ΔIsc, ATL-801+FSK ([1]; ATL-801 100 μM, forskolin 10 μM): 10 μA | TUNEL positive cells out of total (around 500) number of cells counted in each crypt ([2]; control 4.7±1.5, piroxicam 4.3±2.3): 10±1.0 | proliferation index, ki67 positive staining ([2]; control 8.0±0.7, piroxicam alone 28.8±2.8): 18.5±1.4 | IL-6 mRNA in colonic mucosal tissue ([3]; DSS + antagonist, normalized to 36B4, DSS 7.2±1.7): 1.8±0.7 fold increase compared to untreated | MIP-2 mRNA levels ([3]; DSS+ATL-801, fold increase over control (FIG. 5B), DSS 28.1±3.8): 13.62±3.0

Source: patent US8193200B2, “Antagonists of A2B adenosine receptors for treatment of inflammatory bowel disease” (University of Virginia Patent Foundation, priority 2007, dated 2012)
